Reference: ChEMBL document CHEMBL1201862, “PubChem BioAssay data set” (2004)
Calls of active or inactive are those of the source.

Assays:
[1] = biological target: T1, DNA repair protein RAD52 homolog (Homo sapiens, UniProt P43351); assay type: functional, biochemical
T1 sequence (P43351 whole entry): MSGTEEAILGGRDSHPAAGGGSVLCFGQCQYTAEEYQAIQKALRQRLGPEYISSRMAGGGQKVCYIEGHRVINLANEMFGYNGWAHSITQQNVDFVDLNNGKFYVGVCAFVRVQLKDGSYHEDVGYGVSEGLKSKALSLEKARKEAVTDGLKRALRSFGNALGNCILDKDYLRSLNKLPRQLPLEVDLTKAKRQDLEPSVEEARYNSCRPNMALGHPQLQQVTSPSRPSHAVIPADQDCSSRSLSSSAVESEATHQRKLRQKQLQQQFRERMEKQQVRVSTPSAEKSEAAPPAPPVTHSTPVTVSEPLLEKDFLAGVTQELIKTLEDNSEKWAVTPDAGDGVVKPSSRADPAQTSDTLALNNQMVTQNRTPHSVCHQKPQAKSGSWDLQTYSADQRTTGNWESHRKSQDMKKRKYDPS

[2] = Trypanosoma cruzi growth suppression in host cells – NIH3T3 host cells, beta-gal luminescence, confirmation (AID 2044); assay type: functional, cell-based;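 also: intracellular parasites grown in NIH/3T3 mouse fibroblasts as host cells; luminescent beta-galactosidase reporter signal from transgenic T. cruzi replicating inside host cells; inhibitors lower the luminescence signal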
[3] = biological target: T2, Microphthalmia-associated transcription factor (Homo sapiens, UniProt O75030); assay: reducers of TRPM1 reporter luminescence, concentration series – cell-based, SK-MEL-5, cherry-picked, set 3, MITF inhibitor project, dose response (AID 493073); assay type: functional;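 also: SK-MEL-5 melanoma cells with luciferase driven by the MITF target TRPM1 promoter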
T2 sequence (O75030 whole entry): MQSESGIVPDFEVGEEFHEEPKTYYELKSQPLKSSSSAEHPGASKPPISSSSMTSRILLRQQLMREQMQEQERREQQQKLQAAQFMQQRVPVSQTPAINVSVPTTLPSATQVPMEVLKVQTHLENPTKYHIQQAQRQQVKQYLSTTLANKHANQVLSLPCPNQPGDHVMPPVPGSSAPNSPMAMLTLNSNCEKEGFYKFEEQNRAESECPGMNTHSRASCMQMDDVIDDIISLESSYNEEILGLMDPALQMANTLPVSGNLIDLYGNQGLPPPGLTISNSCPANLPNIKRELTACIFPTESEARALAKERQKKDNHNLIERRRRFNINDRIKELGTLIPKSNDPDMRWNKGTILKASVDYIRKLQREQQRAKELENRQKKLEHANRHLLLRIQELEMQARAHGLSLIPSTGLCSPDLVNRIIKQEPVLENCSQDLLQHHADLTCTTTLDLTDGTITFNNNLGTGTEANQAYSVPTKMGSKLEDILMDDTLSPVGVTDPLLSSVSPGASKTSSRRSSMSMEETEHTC

[4] = NIH3T3 cell viability loss – ATP luminescence, mouse fibroblasts, counter-screen, dose response (AID 2010); assay type: functional, cell-based;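 also: cells exposed to compound for about 90 hours before reading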
Escherichia coli = assay: microbe, parasite or virus in culture
[5] = biological target: T3, Nucleotide-binding oligomerization domain-containing protein 1 (Homo sapiens, UniProt Q9Y239); assay: blockers of NOD1 pathway activity – revised, SAR follow-up (AID 2333); assay type: functional
T3 sequence (Q9Y239 whole entry): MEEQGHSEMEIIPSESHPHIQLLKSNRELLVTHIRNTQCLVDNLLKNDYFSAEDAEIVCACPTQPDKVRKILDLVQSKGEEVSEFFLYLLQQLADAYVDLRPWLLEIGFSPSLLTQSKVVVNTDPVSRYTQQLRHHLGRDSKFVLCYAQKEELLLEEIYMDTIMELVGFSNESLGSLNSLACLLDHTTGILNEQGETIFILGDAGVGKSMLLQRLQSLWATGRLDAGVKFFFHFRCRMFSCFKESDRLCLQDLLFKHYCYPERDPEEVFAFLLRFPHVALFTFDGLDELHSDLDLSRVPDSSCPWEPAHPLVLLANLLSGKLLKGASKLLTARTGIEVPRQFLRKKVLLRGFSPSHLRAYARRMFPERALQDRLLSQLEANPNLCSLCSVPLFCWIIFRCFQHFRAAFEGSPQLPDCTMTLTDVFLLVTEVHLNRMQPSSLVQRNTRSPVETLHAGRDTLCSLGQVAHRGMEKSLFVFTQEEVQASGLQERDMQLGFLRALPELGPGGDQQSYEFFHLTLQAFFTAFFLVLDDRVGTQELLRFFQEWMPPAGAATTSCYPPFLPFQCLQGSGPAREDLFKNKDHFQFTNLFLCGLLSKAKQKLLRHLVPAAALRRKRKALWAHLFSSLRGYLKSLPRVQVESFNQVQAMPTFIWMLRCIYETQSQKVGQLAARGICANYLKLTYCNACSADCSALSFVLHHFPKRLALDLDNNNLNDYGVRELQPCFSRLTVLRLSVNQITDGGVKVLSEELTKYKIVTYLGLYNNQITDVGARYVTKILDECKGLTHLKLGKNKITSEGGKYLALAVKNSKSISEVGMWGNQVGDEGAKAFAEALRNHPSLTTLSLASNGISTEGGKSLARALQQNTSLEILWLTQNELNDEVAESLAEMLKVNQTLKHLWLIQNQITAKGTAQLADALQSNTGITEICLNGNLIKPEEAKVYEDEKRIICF

HEK293 [6] = assay: cells; settings: Homo sapiens
INS1 = assay: INS-1E survival protection against cytokine death – cell-based, luminescence, retest, dose response (AID 449756); assay type: functional; settings: Rattus norvegicus;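 also: cell death triggered by IL-1 beta plus TNF-alpha plus IFN-gamma mixture; protective hits raise ATP signal compared with cytokine alone wells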
[7] = NIH-3T3 fibroblast cytotoxicity, dose response, cytotoxicity control, cell-based, fluorescence, Alamar Blue, secondary assay (AID 2327); assay type: functional;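 also: NIH-3T3 mouse fibroblasts cultured with fluconazole at 8 µg/mL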
[8] = biological target: T4, Serine/threonine-protein phosphatase (Candida dubliniensis (strain CD36 / CBS 7987 / NCPF 3949 / NRRLY-17841) (Yeast), UniProt B9W6M3); assay: blockers of CaCl2-induced CDRE-lacZ signaling – S. cerevisiae, luminescence, secondary, dose response (AID 2388); assay type: functional, cell-based;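 also: yeast reporter cells carrying a calcineurin-responsive lacZ construct stimulated with calcium chloride; luminescent beta-galactosidase reporter signal in whole cells rather than isolated phosphatase activity; potency for inhibition where a drop in reporter signal means calcineurin blockade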
T4 sequence (B9W6M3 whole entry): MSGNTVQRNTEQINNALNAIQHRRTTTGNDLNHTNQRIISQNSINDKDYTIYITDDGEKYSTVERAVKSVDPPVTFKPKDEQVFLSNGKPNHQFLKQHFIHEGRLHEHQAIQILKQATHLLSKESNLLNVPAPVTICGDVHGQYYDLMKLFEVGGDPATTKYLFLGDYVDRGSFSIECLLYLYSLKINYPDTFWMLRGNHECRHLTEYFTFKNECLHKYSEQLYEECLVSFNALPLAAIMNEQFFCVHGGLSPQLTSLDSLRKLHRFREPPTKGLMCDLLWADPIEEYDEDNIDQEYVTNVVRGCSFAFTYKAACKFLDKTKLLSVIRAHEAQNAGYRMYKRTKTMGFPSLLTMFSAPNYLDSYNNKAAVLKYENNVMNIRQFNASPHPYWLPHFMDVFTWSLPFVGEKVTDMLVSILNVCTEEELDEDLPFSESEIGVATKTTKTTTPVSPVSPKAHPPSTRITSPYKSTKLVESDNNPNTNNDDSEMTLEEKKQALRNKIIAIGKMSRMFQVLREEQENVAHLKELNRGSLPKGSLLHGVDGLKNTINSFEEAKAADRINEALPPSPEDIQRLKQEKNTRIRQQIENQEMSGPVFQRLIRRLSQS

[9] = biological target: T5, COUP transcription factor 2 (Homo sapiens, UniProt P24468); assay: Luminescence-based cell-based high throughput dose response assay to identify inhibitors of COUP-TFII (NR2F2).; assay type: functional;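 also: HEK293 cells transiently cotransfected with COUP-TFII expression vector and reporter; luciferase reporter luminescence driven by COUP-TFII from the pX2-168 reporter plasmid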
T5 sequence (P24468 whole entry): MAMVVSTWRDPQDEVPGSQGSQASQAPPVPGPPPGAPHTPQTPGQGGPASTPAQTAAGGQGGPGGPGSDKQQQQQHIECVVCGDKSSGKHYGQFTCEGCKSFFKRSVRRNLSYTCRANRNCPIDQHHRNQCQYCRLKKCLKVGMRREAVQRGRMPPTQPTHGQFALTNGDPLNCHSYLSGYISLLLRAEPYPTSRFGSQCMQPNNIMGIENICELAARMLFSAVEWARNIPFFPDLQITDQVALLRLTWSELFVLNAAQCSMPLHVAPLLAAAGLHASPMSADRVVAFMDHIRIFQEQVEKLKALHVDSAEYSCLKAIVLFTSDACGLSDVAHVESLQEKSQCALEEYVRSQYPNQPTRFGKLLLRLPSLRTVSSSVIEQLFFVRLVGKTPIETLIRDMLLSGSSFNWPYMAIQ

[10] = fluconazole-exposed Candida albicans growth modulators – fluorescence, retest, confirmation (AID 2467); assay type: functional, cell-based
Tumor necrosis factor = Tumor necrosis factor (Homo sapiens, UniProt P01375); assay: analog potency on TNFa NF-kB signaling – cell-based, revised, SAR follow-up (AID 2337); assay type: functional
Sequence of Tumor necrosis factor (P01375 whole entry): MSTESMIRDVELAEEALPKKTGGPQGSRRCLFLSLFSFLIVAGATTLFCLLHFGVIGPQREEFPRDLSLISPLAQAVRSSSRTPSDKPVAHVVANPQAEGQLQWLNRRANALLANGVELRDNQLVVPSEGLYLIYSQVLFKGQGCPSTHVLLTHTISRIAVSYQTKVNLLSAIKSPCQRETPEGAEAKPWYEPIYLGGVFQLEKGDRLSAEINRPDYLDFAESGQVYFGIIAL

[11] = HEK-293T viability loss after treatment – luminescence, T-cell screen hits, cytotoxicity control for TCR NF-kB inhibitor project, dose response (AID 489026); assay type: functional, cell-based;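 also: cells exposed to compound about 14 hours before the viability readout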
[12] = biological target: ATP-dependent molecular chaperone HSP82 (Candida albicans (strain WO-1) (Yeast), UniProt C4YTQ8); assay: steroid-induced GRE reporter decrease in yeast – S. cerevisiae, luminescence, Hsp90 inhibitor project, dose response (AID 2400); assay type: functional, cell-based;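 also: beta-galactosidase luminescence from glucocorticoid response element reporter as proxy for Hsp90 function; inhibitor potency where signal loss means Hsp90 inhibition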
Sequence of ATP-dependent molecular chaperone HSP82 (C4YTQ8 whole entry, the tested form may be a part): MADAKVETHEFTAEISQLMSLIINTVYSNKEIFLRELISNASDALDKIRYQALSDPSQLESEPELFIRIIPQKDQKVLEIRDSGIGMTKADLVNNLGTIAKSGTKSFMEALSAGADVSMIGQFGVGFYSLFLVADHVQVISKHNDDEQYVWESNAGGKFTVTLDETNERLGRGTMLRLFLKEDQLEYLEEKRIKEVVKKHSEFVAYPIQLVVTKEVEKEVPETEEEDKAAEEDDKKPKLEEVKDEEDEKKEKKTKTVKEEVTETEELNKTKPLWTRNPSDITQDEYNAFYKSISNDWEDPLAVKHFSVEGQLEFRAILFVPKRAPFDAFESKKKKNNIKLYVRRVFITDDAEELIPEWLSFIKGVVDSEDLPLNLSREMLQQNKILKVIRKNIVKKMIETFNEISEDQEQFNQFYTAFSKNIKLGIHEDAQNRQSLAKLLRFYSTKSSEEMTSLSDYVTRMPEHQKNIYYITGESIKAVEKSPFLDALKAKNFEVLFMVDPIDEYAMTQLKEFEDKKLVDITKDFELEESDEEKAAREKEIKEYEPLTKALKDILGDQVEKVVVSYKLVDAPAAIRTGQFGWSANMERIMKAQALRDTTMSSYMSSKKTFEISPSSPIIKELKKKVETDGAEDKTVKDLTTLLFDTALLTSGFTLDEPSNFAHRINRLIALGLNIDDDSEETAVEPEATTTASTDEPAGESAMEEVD

[13] = biological target: Nucleotide-binding oligomerization domain-containing protein 2 (Homo sapiens, UniProt Q9HC29); assay: inhibition of NOD2-driven NF-kB reporter – cell-based, luminescence, uHTS, HEK293 (AID 1566); assay type: functional
Sequence of Nucleotide-binding oligomerization domain-containing protein 2 (Q9HC29 whole entry, the tested form may be a part): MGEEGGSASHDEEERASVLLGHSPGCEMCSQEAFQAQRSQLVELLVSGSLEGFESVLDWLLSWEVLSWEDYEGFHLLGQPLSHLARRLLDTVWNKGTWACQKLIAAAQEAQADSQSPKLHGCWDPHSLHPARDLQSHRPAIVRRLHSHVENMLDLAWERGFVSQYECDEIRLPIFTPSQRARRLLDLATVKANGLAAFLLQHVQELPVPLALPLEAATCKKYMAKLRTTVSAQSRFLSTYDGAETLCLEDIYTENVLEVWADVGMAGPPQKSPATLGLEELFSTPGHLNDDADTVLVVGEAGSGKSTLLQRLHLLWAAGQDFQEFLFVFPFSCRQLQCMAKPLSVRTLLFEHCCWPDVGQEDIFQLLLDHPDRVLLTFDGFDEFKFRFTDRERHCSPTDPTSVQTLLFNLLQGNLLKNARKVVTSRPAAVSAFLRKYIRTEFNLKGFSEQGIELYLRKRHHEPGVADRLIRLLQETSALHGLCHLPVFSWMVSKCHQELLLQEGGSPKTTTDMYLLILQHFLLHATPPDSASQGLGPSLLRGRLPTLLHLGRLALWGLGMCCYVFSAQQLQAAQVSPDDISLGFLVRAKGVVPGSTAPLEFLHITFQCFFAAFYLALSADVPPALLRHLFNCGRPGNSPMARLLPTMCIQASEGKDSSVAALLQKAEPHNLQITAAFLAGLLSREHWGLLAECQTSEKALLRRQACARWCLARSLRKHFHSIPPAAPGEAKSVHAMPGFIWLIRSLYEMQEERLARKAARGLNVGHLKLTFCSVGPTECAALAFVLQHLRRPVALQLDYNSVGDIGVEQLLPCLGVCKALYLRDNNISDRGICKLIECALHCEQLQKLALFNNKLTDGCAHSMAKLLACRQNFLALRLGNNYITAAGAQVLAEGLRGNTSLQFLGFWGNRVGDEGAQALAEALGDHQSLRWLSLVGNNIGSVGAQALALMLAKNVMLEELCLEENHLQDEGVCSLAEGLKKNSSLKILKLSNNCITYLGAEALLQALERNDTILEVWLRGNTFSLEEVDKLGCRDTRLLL

HEK293 [14] = assay: cells; assay type: functional, cell-based; settings: Homo sapiens
[15] = biological target: T6, Heat shock factor protein 1 (Mus musculus, UniProt P38532); assay: decrease of HSF1-responsive luciferase luminescence – cell-based, NIH3T3, dose retest, confirmation (AID 2382); assay type: functional;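 also: NIH3T3 fibroblasts with HSF1-driven luciferase reporter stressed by proteasome inhibitor MG132; luminescence from HSF1-driven luciferase expression after 8 hours of MG132 stress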
T6 sequence (P38532 whole entry): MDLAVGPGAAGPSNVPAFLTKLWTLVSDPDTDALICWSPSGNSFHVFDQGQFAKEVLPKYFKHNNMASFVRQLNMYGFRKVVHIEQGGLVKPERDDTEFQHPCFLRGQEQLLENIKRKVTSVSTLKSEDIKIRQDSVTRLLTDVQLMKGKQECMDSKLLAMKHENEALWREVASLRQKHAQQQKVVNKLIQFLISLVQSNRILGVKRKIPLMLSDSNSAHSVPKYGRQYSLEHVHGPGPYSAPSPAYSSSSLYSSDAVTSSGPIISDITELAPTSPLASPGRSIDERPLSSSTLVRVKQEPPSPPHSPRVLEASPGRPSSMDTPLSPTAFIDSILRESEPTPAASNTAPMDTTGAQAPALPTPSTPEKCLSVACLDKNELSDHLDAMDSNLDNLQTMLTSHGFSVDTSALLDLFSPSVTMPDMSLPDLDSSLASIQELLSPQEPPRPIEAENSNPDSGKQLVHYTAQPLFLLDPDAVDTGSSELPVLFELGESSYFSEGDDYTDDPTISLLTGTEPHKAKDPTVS

HEK293 [16] = assay: cells; assay type: functional, cell-based; settings: Homo sapiens; remark: listed apart in the source
HEK293 [17] = assay: inhibition of NOD1-driven NF-kB reporter – cell-based, luminescence, uHTS, primary screen (AID 1578); assay type: functional; settings: Homo sapiens
HEK293 [18] = assay: NOD2 signaling inhibitors in MDP-stimulated cells, cell-based, uHTS, luminescence (AID 2001); assay type: functional; settings: Homo sapiens
HEK293 [19] = assay: cells; assay type: functional, cell-based; settings: Homo sapiens; remark: listed apart in the source

Q: Which AC50 [1] does the source give for `Cc1cc(C)c2nc3nc(C)cc(C)c3c(N)c2c1` here?
A: The AC50 was 1.12 µM (active).

Q: And the EC50 [2]?
A: The EC50 was 1.5 µM (active).

Q: And the AC50 [3]?
A: The AC50 was 5.72 µM (active).

Q: And the EC50 [4]?
A: Its EC50 is > 60 µM (not active).

Q: For `Cc1ccc2c(CC(=O)Nc3ccc(N4CCN(C)CC4)cc3C)coc2c1`, which AC50 (Escherichia coli) is on record?
A: The AC50 was 43.5 µM (active).

Q: With `CCc1cc(C(=O)NC2CCCc3c2cnn3-c2cccc(C)c2C)n(C)n1` (stereo unspecified) as the molecule, how does the IC50 [5] read?
A: Its IC50 is 0.0983 µM (active).

Q: And the IC50 (HEK293 [6])?
A: The IC50 was > 20 µM (inactive).

Q: And the AC50 (INS1)?
A: The AC50 was < 0.195 µM (active).

Q: And the EC50 [7]?
A: Its EC50 is > 150 µM (inactive).

Q: What about the EC50 [8] of the same molecule?
A: The EC50 was > 180 µM (inactive).

Q: What about the IC50 [9] of the same molecule?
A: Its IC50 is > 0.117 µM (active).

Q: And the EC50 [10]?
A: Its EC50 is 0.142 µM (active).

Q: And the IC50 (Tumor necrosis factor)?
A: Its IC50 is 0.179 µM (active).

Q: And the IC50 [11]?
A: The IC50 was > 80 µM (inactive).

Q: What about the EC50 [12] of the same molecule?
A: Its EC50 is > 150 µM (inactive).

Q: Which IC50 [5] does the source give for `Cc1ccc2oc(N=C(N)NC(=O)C(C)(C)C)nc2c1` here?
A: Its IC50 is 0.0949 µM (active).

Q: And the EC50 [13]?
A: Its EC50 is 0.01 µM (active).

Q: What about the IC50 (HEK293 [14]) of the same molecule?
A: Its IC50 is > 20 µM (inactive).

Q: What about the EC50 [15] of the same molecule?
A: Its EC50 is < 0.16 µM (active).

Q: And the IC50 (HEK293 [16])?
A: Its IC50 is > 20 µM (inactive).

Q: And the IC50 (HEK293 [6])?
A: The IC50 was > 20 µM (inactive).

Q: And the EC50 (HEK293 [17])?
A: Its EC50 is < 0.31 µM (inactive).

Q: And the IC50 (HEK293 [18])?
A: The IC50 was 4.71 µM (active).

Q: And the IC50 (HEK293 [19])?
A: The IC50 was < 0.312 µM (active).

Q: And the IC50 (Tumor necrosis factor)?
A: The IC50 was < 0.0391 µM (active).

Q: And the IC50 [11]?
A: The IC50 was > 80 µM (inactive).
